{
  "source": "PubChem BioAssay (NCI)",
  "test_in_all_cases": "inhibition of tumour cell growth, NCI panel, 384-well format",
  "key": {"[1]": {"tested_on": "A498 renal"}, "[2]": {"tested_on": "SR leukemia"}, "[3]": {"tested_on": "NCI-H322M lung"}, "[4]": {"tested_on": "786-0 renal"}, "[5]": {"tested_on": "HCT-116 colon"}, "[6]": {"tested_on": "U251 glioblastoma"}, "[7]": {"tested_on": "UACC-62 melanoma"}, "[8]": {"tested_on": "SK-MEL-28 melanoma"}, "[9]": {"tested_on": "UACC-257 melanoma"}, "[10]": {"tested_on": "NCI-H522 lung"}, "[11]": {"tested_on": "SF-268 CNS"}, "[12]": {"tested_on": "MOLT-4 leukemia"}, "[13]": {"tested_on": "SF-295 CNS"}, "[14]": {"tested_on": "UO-31 renal"}, "[15]": {"tested_on": "ACHN renal"}, "[16]": {"tested_on": "SNB-75 CNS"}, "[17]": {"tested_on": "HOP-62 NSCLC"}, "[18]": {"tested_on": "HCT-15 colon"}, "[19]": {"tested_on": "RPMI-8226 leukemia"}, "[20]": {"tested_on": "SN12C renal"}, "[21]": {"tested_on": "CAKI-1 renal"}, "[22]": {"tested_on": "NCI-H23 lung"}, "[23]": {"tested_on": "A549 NSCLC"}, "[24]": {"tested_on": "HOP-92 NSCLC"}, "[25]": {"tested_on": "OVCAR-8 ovarian"}, "[26]": {"tested_on": "MDA-MB-435 melanoma"}, "[27]": {"tested_on": "MDA-MB-231 breast"}, "[28]": {"tested_on": "KM12 colon"}},
  "note": "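GI50 = concentration required for 50% inhibition of growth. At the TGI there is no net growth.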",
  "data": [
    {"smiles": "COc1cc2c(Nc3ccc(Br)cc3F)ncnc2cc1OCC1CCN(C)CC1", "values": [
      {"measurement": "GI50", "setting": "[1]", "result": 1440, "unit": "nM"},
      {"measurement": "TGI", "setting": "[1]", "result": 3340, "unit": "nM"},
      {"measurement": "GI50", "setting": "[2]", "result": 3540, "unit": "nM"},
      {"measurement": "TGI", "setting": "[2]", "result": 5010, "unit": "nM"},
      {"measurement": "GI50", "setting": "[3]", "result": 298, "unit": "nM"},
      {"measurement": "TGI", "setting": "[3]", "result": 900, "unit": "nM"},
      {"measurement": "GI50", "setting": "[4]", "result": 1370, "unit": "nM"},
      {"measurement": "TGI", "setting": "[4]", "result": 2870, "unit": "nM"},
      {"measurement": "GI50", "setting": "[5]", "result": 3100, "unit": "nM"},
      {"measurement": "TGI", "setting": "[5]", "result": 10700, "unit": "nM"},
      {"measurement": "GI50", "setting": "[6]", "result": 4460, "unit": "nM"},
      {"measurement": "TGI", "setting": "[6]", "result": 17100, "unit": "nM"},
      {"measurement": "GI50", "setting": "[7]", "result": 1830, "unit": "nM"},
      {"measurement": "TGI", "setting": "[7]", "result": 3370, "unit": "nM"},
      {"measurement": "GI50", "setting": "[8]", "result": 1710, "unit": "nM"},
      {"measurement": "TGI", "setting": "[8]", "result": 3110, "unit": "nM"},
      {"measurement": "GI50", "setting": "[9]", "result": 1900, "unit": "nM"},
      {"measurement": "TGI", "setting": "[9]", "result": 3320, "unit": "nM"},
      {"measurement": "GI50", "setting": "[10]", "result": 616, "unit": "nM"},
      {"measurement": "TGI", "setting": "[10]", "result": 2530, "unit": "nM"},
      {"measurement": "GI50", "setting": "[11]", "result": 2460, "unit": "nM"},
      {"measurement": "TGI", "setting": "[11]", "result": 7050, "unit": "nM"},
      {"measurement": "GI50", "setting": "[12]", "result": 1920, "unit": "nM"},
      {"measurement": "TGI", "setting": "[12]", "result": 5650, "unit": "nM"},
      {"measurement": "GI50", "setting": "[13]", "result": 66600, "unit": "nM"},
      {"measurement": "TGI", "setting": "[13]", "result": "> 100000", "unit": "nM"},
      {"measurement": "GI50", "setting": "[14]", "result": 1160, "unit": "nM"},
      {"measurement": "TGI", "setting": "[14]", "result": 2460, "unit": "nM"},
      {"measurement": "GI50", "setting": "[15]", "result": 553, "unit": "nM"},
      {"measurement": "TGI", "setting": "[15]", "result": 3910, "unit": "nM"},
      {"measurement": "GI50", "setting": "[16]", "result": 1570, "unit": "nM"},
      {"measurement": "TGI", "setting": "[16]", "result": 3610, "unit": "nM"},
      {"measurement": "GI50", "setting": "[17]", "result": 2770, "unit": "nM"},
      {"measurement": "TGI", "setting": "[17]", "result": 10400, "unit": "nM"},
      {"measurement": "GI50", "setting": "[18]", "result": 1980, "unit": "nM"},
      {"measurement": "TGI", "setting": "[18]", "result": 5360, "unit": "nM"},
      {"measurement": "GI50", "setting": "[19]", "result": 2840, "unit": "nM"},
      {"measurement": "TGI", "setting": "[19]", "result": 6120, "unit": "nM"},
      {"measurement": "GI50", "setting": "[20]", "result": 2330, "unit": "nM"},
      {"measurement": "TGI", "setting": "[20]", "result": 16300, "unit": "nM"},
      {"measurement": "GI50", "setting": "[21]", "result": 1230, "unit": "nM"},
      {"measurement": "TGI", "setting": "[21]", "result": 2550, "unit": "nM"},
      {"measurement": "GI50", "setting": "[22]", "result": 3380, "unit": "nM"},
      {"measurement": "TGI", "setting": "[22]", "result": 15500, "unit": "nM"},
      {"measurement": "GI50", "setting": "[23]", "result": 2070, "unit": "nM"},
      {"measurement": "TGI", "setting": "[23]", "result": 11200, "unit": "nM"},
      {"measurement": "GI50", "setting": "[24]", "result": 1370, "unit": "nM"},
      {"measurement": "TGI", "setting": "[24]", "result": 2840, "unit": "nM"},
      {"measurement": "GI50", "setting": "[25]", "result": 2540, "unit": "nM"},
      {"measurement": "TGI", "setting": "[25]", "result": 7230, "unit": "nM"},
      {"measurement": "GI50", "setting": "[26]", "result": 2590, "unit": "nM"},
      {"measurement": "TGI", "setting": "[26]", "result": 4420, "unit": "nM"},
      {"measurement": "GI50", "setting": "[27]", "result": 1870, "unit": "nM"},
      {"measurement": "TGI", "setting": "[27]", "result": 4300, "unit": "nM"},
      {"measurement": "GI50", "setting": "[28]", "result": 5900, "unit": "nM"},
      {"measurement": "TGI", "setting": "[28]", "result": 17400, "unit": "nM"}
    ]}
  ]
}
